Reference: article PMC8280112, “Substrate reduction therapy for Krabbe disease and metachromatic leukodystrophy using a novel ceramide galactosyltransferase inhibitor” (Scientific Reports, 2021)
Where two headings read alike, the source gives them in different places.

How the values were obtained:
[1] = target: T1, Recombinant human glucosylceramidase (GBA1) (Homo sapiens, UniProt P04062); assay: Beta-glucocerebrosidase assay; format: biochemical
T1 construct: purchased R&D Systems
T1 sequence (P04062 40-536): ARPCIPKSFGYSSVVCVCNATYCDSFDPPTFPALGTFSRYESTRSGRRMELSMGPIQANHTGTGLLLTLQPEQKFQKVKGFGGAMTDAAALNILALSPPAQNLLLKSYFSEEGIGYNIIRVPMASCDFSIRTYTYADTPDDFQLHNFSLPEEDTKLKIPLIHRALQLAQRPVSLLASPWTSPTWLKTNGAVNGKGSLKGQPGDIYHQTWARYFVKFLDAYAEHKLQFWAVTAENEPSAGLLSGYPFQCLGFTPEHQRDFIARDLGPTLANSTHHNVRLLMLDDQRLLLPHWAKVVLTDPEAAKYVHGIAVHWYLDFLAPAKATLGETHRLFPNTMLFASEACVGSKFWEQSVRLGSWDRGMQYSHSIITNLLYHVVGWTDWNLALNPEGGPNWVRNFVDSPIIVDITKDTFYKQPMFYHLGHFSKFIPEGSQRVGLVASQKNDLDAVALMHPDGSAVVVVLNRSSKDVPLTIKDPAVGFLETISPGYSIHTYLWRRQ

[2] = tested on: Sphingomyelin synthase (SMS); assay: Sphingomyelin synthase assay; format: biochemical; details: MDCK cell lysate
Experimental: 100 µL assay buffer (50 mM Tris buffer pH 7.5 containing 25 mM KCl, 0.5 mM EDTA, 10 µM NBD-C6 ceramide, 100 µM DOPC, and 0.01% Tween 80), 60 µg MDCK cell lysate, and serial diluted compounds were incubated at 37 ℃ for 1 h. The reaction was terminated and prepared for LC–MS using the same protocol as the GCS assay, however, a NBD-C6-sphingomyelin (Avanti) reference standard was used to quantify the sphingomyelin synthesis.

CB1 receptor = target: T2, CB1 receptor (Homo sapiens, UniProt P21554); assay: CB1R activity (Eurofin Cerep); format: cell-based
T2 construct: purchased Eurofin Cerep ITEM G012
Experimental: CB1R activity was evaluated at Eurofin Cerep, Le Bois l'Evêque, France ITEM […].

[3] = Mouse pharmacokinetics and brain concentration; format: in vivo; details: C57BL/6 mice, single 20 mg/kg IP injection, plasma
Experimental: Blood was collected in K2 EDTA tube to obtain a plasma sample (2000g, 5 min at 4 °C). The brain was removed, rinsed with cold saline, dried on filter paper, weighed, and snap frozen by placing on dry ice. Brains were homogenized in 3 volumes of PBS (pH 7.4) by mini-bead-beater before sample extraction for bioanalysis. […] Pharmacokinetic parameters were calculated using WinNonlin V 8.2 statistics software (Pharsight Corporation).

Twitcher mice = assay: Twitcher mouse brain immunostaining and cytokine analysis; format: in vivo; details: 0.15 mg/kg IP three times per week, PND3 to PND28
Experimental: Five sections from a one in four series of sagittal brain sections from each mouse were stained on slides using a modified immunofluorescence protocol for the following antibodies—astrocytes (rabbit anti-GFAP, 1:1000, DAKO Z0334), microglia (rat anti-mouse CD68, 1:400, Bio-Rad MCA1957), and myelin basic protein (MBP) (rat anti-MBP, 1:500, Merck Millipore MAB386). Briefly, 40 µm sagittal sections were mounted on Superfrost Plus slides (Fisher Scientific), air-dried for 30 min, and blocked in 15% normal goat serum solution (Vector Labs, S-1000) in 2% TBS-T (1 × Tris Buffered Saline, pH 7.6 with 2% Triton-X100, Fisher Scientific) for 1 h. Slides were then incubated in primary antibody in 10% serum solution in 2% TBS-T for 2 h. Slides were washed three times in 1×TBS and incubated in fluorescent Alexa-Fluor labelled IgG secondary antibodies (Alexa-Fluor goat anti-rabbit 488, Invitrogen A-11008 and goat anti-rat 546, Invitrogen A-11081) in 10% serum solution in 2% TBS-T for 2 h, washed three times in 1×TBS, and incubated in a 1 × solution of TrueBlack lipofuscin autofluorescence quencher (Biotium, Fremont, CA, #23,007) in 70% ethanol for 2 min before rinsing in 1×TBS. Slides were coverslipped in fluoromount-G mounting medium with DAPI (Southern Biotech). To analyze the glial activation (GFAP-positive astrocytes + CD68-positive microglia) as well as MBP staining of punctate bodies in the cerebellar white matter, a semiautomated thresholding image analysis method was used with Image-Pro Premier software (Media Cybernetics). Briefly, this involved the collection of slide-scanned images at 5 × magnification for a one in four series of 3 sections per animal followed by demarcation of all regions (in this case the white matter of the cerebellum) of interest while maintaining the lamp intensity, video camera setup, and calibration constant throughout image capturing. Images were subsequently analyzed using Image-Pro Premier using an appropriate threshold that selected the foreground immunoreactivity above background. This threshold was then applied as a constant to all subsequent images analyzed per batch of animals and reagent used to determine the specific area of immunoreactivity for each antigen. Image densitometry for the average pixel luminance data was also gathered for MBP staining of the cerebellar white matter due to the higher density of staining. Slide-scanned images at 5 × magnification were collected for a one in forty-eight series of sections per animal followed by collecting the mean luminance data across all pixels from the regions of interest delineated using Image-Pro Premier.
Cytokine/chemokine analyses were performed on the brains from the same animals used for immunofluorescent imaging. […]

wild-type mice = assay: PND15 wild-type mice tolerability study: blood chemistry and hematology; format: in vivo, mouse; details: PND15-PND70, Avg
Experimental: Maximum obtainable terminal blood collection was taken via cardiac puncture and split. 200 µL into clot-activating tubes for serum processing and the following chemistry panel: AST, ALT, CKMB and electrolytes. 220 µL stored on wet ice and used for CBC.
Animals were euthanized with CO2 followed by cardiac puncture. Blood was collected via cardiac puncture and split for blood chemistry and hematology.

[4] = 2.3 mg/kg IP three times per week
[5] = 5.4 mg/kg IP three times per week

T2 sequence (P21554 whole entry): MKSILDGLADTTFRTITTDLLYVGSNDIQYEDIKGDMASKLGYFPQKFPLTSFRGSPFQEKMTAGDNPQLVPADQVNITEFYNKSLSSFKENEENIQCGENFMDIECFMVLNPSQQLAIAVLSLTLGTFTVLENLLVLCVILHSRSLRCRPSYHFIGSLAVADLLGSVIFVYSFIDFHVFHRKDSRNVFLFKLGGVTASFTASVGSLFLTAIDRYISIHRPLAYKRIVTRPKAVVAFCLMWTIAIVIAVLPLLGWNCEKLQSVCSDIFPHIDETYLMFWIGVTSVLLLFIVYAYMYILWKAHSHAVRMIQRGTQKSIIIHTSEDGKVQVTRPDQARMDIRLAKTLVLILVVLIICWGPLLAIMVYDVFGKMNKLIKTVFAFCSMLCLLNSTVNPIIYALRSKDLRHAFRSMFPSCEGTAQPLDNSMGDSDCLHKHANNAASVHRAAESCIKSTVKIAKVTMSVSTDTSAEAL

## C[C@H]1N(c2ccc(Br)cc2)C(=O)N(c2ccc(Br)cc2)C1(O)c1cccc(OC(F)(F)F)c1 (stereo partly shown) [S202]
[1]
  IC50: > 50 µM
[2]
  IC50: > 50 µM
CB1 receptor; S202 relative to S221
  potency as a CB1 inverse agonist, change through optimization of S221: reduced tenfold
CB1 receptor; antagonist mode, read-out: CB1R antagonist IC50
  IC50: 2.9 µM
CB1 receptor; inverse agonist mode, read-out: CB1R inverse agonist IC50
  IC50: 2.1 µM
CB1 receptor; read-out: CB1 receptor IC50
  IC50: 3 µM
[3]
  AUC(0-inf): 83800 ng·h/mL
  AUC(0-t): 59400 ng·h/mL
  Cmax: 8500 ng/mL
  Tmax: 1 h
[3]; read-out: Terminal t1/2 (converted)
  half-life: 12.2 h
Twitcher mice
  CD68-positive macrophages in brain sections: trend toward reduction
  GROA level in brain homogenates: reduced the levels
  MCP-1 level in brain homogenates: reduced the levels
  marker of astrocytosis (GFAP) in brain sections: trend toward reduction
wild-type mice; [4]
  #BASO: 0.02 10^3cells/µL
  #EOS: 0.14 10^3cells/µL
  #LUC: 0.11 10^3cells/µL
  #LYMPH: 4.3 10^3cells/µL
  #MONO: 0.12 10^3cells/µL
  #NEUT: 0.8 10^3cells/µL
  #RETIC: 291 10^9cells/L
  %BASO: 0.4%
  %EOS: 2.4%
  %LUC: 2%
  %LYMPH: 78.8%
  %MONO: 2.3%
  %NEUT: 14.3%
  %RETIC: 2.9%
  ALT: 257.2 IU/L
  AST: 283.5 IU/L
  CH: 13.3 pg
  CHCM: 27.5 g/dL
  CHR: 14.6 pg
  CHm: 14 pg
  CKMB: 250.5 U/L
  CL: 109.4 mmol/L
  HCT: 47.9%
  HDW: 1.9 g/dL
  HGB: 15.3 g/dL
  HGBCell: 13.2 g/dL
  K: 10.5 mmol/L
  MCH: 15.4 pg
  MCHC: 31.9 g/dL
  MCV: 48.2 fL
  MPM: 1.3 pg
  MPV: 5.4 fL
  NA: 148 mmol/L
  PDW: 37.1%
  PLT: 1.02e+06 µL⁻¹
  RBC: 9.9e+06 µL⁻¹
  RDW: 12.2%
  WBC: 5500 µL⁻¹
wild-type mice; [5]
  #BASO: 0.013 10^3cells/µL
  #EOS: 0.4 10^3cells/µL
  #LUC: 0.047 10^3cells/µL
  #LYMPH: 3.8 10^3cells/µL
  #MONO: 0.08 10^3cells/µL
  #NEUT: 0.55 10^3cells/µL
  #RETIC: 285 10^9cells/L
  %BASO: 0.35%
  %EOS: 8.2%
  %LUC: 0.9%
  %LYMPH: 77.6%
  %MONO: 1.6%
  %NEUT: 11.4%
  %RETIC: 2.7%
  ALT: 99.5 IU/L
  AST: 132.8 IU/L
  CH: 13.1 pg
  CHCM: 27.3 g/dL
  CHR: 14.6 pg
  CHm: 13.8 pg
  CKMB: 126.4 U/L
  CL: 111.3 mmol/L
  HCT: 50.1%
  HDW: 1.93 g/dL
  HGB: 15.9 g/dL
  HGBCell: 13.7 g/dL
  K: 9.6 mmol/L
  MCH: 15.3 pg
  MCHC: 31.8 g/dL
  MCV: 48.1 fL
  MPM: 1.3 pg
  MPV: 5.82 fL
  NA: 150.9 mmol/L
  PDW: 46.63%
  PLT: 737200 µL⁻¹
  RBC: 1.04e+07 µL⁻¹
  RDW: 11.8%
  WBC: 4900 µL⁻¹
